Experimental data: the NIST ThermoML archive (doi:10.1016/j.tca.2017.12.026)
“And” between values parts separate entries of the source, which are not always exact repeats. Equal entries are not always repeated. ± gives the expanded uncertainty stated by the source.

Key:
[1] = Crystal; DTA
[2] = Molar enthalpy of transition or fusion; details: Crystal; DSC

Molar enthalpy of transition or fusion [2]: 12.9 kcal/mol and 12.4 kcal/mol and 12.5 kcal/mol
Structure (SMILES): OC[C@@H](O)[C@@H](O)[C@H](O)[C@H](O)CO [D-mannitol]
Normal melting temperature [1]: 165.73 ± 2 °C and 166.68 ± 2 °C and 165.74 ± 2 °C
